Data on 4 molecules can be found in US12480954B2, “Method for assisting evaluation of condition of kidneys, system for evaluating condition of kidneys, and program for evaluating condition of kidneys” (Kagami Inc., priority 2019, dated 2025).

The conditions of series [1]: human, in vivo. The text has this: The test protocol was approved by the ethics committee of the national research and development agency: National Institutes of Biomedical Innovation, Health and Nutrition, and written informed consent was obtained from all of the test subjects.
[formula] • [UD-Ser represents urine D-serine level, PD-Ser represents blood D-serine level, UCre represents urine creatinine level and PCre represents blood creatinine level.]
A retrospective study was used for primary aldosteronism (PA), myeloma kidney […], diabetic nephropathy (DM) and IgA nephropathy (IGAN), from a cohort of kidney disease patients admitted to the Department of Nephrology, Osaka University Hospital for diagnosis and/or treatment from 2016 to 2017. Since IgA nephropathy test subjects had blood pressure above the reference range, they were given an angiotensin II receptor antagonist (ARB) as an antihypertensive drug. Separately, 15 healthy volunteers were recruited as non-kidney disease subjects by the National Institutes of Biomedical Innovation, Health and Nutrition. The test protocol was approved by the ethics committee of each facility, and written informed consent was obtained from all of the patients.
Sample preparation from human blood plasma and urine was carried out as follows: First a 20-fold volume of methanol was added to and completely mixed with the blood plasma. After centrifugation, 10 μL of supernatant obtained from the methanol homogenate was transferred to a brown tube and dried under reduced pressure. To the residue there were added 20 μL of 200 mM sodium borate buffer (pH 8.0) and 5 μL of fluorescent labeling reagent (40 mM 4-fluoro-7-nitro-2,1,3-benzooxadiazole (NBD-F) in anhydrous MeCN), and the mixture was then heated at 60° C. for 2 minutes. The reaction was suspended by addition of 75 μL of aqueous 0.1% TFA (v/v), and 2 μL of the reaction mixture was supplied to two-dimensional HPLC.
The amino acid optical isomers were quantified using the following two-dimensional HPLC system. NBD derivatives of the amino acids were separated and eluted using a reversed-phase column (KSAA RP, 1.0 mm i.d.×400 mm; Shiseido Corp.), in the mobile phase (5 to 35% MeCN, 0 to 20% THF, 0.05% TFA). The column temperature was 45° C. and the mobile phase flow rate was 25 μL/min. The separated amino acid fraction was separated off using a multi loop valve, and optically resolved in a continuous manner with a chiral column (KSAACSP-001S, 1.5 mm i.d.×250 mm; Shiseido Corp.). The mobile phase used was a MeOH/MeCN mixed solution containing citric acid (0 to 10 mM) or formic acid (0 to 4%), according to the amino acid retention. NBD-amino acids were detected by fluorescence detection at 530 nm using excitation light of 470 nm. The NBD-amino acid retention time was identified from standard amino acid optical isomers and quantified by a calibration curve.
The blood urine D-serine level and blood urine D-asparagine level and creatinine level were calculated by substitution into the following formulas.
[formula] • [where • UD-Ser represents the level of D-serine in the urine, • PD-Ser represents the level of D-serine in the blood, • UCre represents the level of creatinine in the urine, and • PCre represents the level of creatinine in the blood]
[formula] • [where • UD-Asn represents the level of D-asparagine in the urine, • PD-Asn represents the level of D-asparagine in the blood, • UCre represents the level of creatinine in the urine, and • PCre represents the level of creatinine in the blood] Evaluation and Assessment of Pathology

On the set-up of series [2]: species or system human. The settings on record: in vivo. The text has this: Blood D-serine levels and D-asparagine levels correlate more strongly with glomerular filtration rate than the conventional marker of creatinine. […] In healthy persons without presence of disease, blood D-serine level is kept to within a very narrow range of about 1 to 2% of total serine, whereas its presence in urine reaches 30 to 60%. […] Moreover, in healthy persons without presence of disease, blood D-asparagine level is kept to within a very narrow range of about 0.1 to 0.6% of total asparagine, whereas its presence in urine reaches 20 to 50%.

The nature of series [3]: D-serine excretion rate monitored before and after therapeutic intervention in a systemic lupus erythematosus patient. It is filed as in vivo, human. To be noted: SLE patient. As for the experimental part: After obtaining written informed consent from a person admitted to Osaka University Hospital with systemic lupus erythematosus, with ethical approval from the same University, their blood and urine were periodically sampled. The values rapidly worsened, with serum creatinine increasing from a level of 0.57 mg/dL 90 days before admission to 11.68 mg/dL and urine protein concentration increasing from 0.5 g/g Cre to 4.0 g/g Cre, while blood pressure was 122/65 mmHg, HR was 64 bpm, percutaneous arterial oxygen saturation was 100% (indoor air) and body temperature was 36.5° C. Mouth ulcers, alopecia and retinal hemorrhage were also noted, but no abnormal lung sounds, heart sounds or lower extremity edema was observed. Rapidly progressive glomerulonephritis was suspected in clinical testing, with blood hemoglobin of 4.6 g/dL, normal level complement of C3: 88 mg/dL and C4: 21 mg/dL, positive anti-dsDNA antibody of 13.0 IU/mL1, and P-ANCA of 182.0 U/mL, and therefore plasma exchange (PE) sessions were continued, and kidney biopsy was performed. Crescent-shaped cells were found in 79% of the glomeruli, fibrous crescent-shaped cells were found in 13%, and the glomerular capillaries were thickened with foam and spikes, although no glomerulosclerosis was observed. […] Tubular atrophy was localized and moderate. In immunofluorescent staining, the granular glomerular capillary walls were positive overall for IgG, IgA, IgM, C3, C4 and C1q. Diagnosis was latent ANCA-related crescent-shaped glomerular nephritis, with lupus nephritis class V. Treatment was by prednisolone pulse therapy (3 days, 1 g), followed by oral prednisolone (40 mg/day), intermittent pulse intravenous cyclophosphamide therapy (500 mg/m^2) and mycophenolate mofetil (MMF, 500 mg/day). Eight series of plasma exchange was also carried out. In response to this treatment, the serum creatinine level fell to 0.72 mg/dL, but the urine protein level persisted. […] The harvested blood and urine samples were prepared in the same manner as Example 1, and the D-serine was quantified while also calculating the D-serine excretion rate.

In the case of `NC(=O)C[C@@H](N)C(=O)O` [D-asparagine], in series [1], the “logarithm of reference values of excretion rate” value is recorded as 3.95-4.37; the “mean logarithmic value of excretion rate” value was 4.16; the “reference values of excretion rate, mean with standard deviation of ±1.96” value is listed as 51.65-78.74%. For the same molecule, in series [2], the excreted is 50-80%.
In the case of `N[C@H](CO)C(=O)O` [D-serine], the “logarithm of reference values of excretion rate” value in series [1] was 3.75-4.50. Also, the “mean logarithmic value of excretion rate” value in series [1] came out at 4.12. Besides, the “reference values of excretion rate, mean with standard deviation of ±1.96” value in series [1] was 42.46-89.66%. Moreover, the D-serine excretion rate in series [3] (after 48 hours (so in the source)) was determined as 41.7%; in series [3] (after 8 days), 0; in series [3] (after 12 days), 0; in series [3] (after 16 days) it was 0; in series [3] (after 22 days) it was 0; in series [3] (after 29 days), 58.9%. In addition, the results for the D-serine excretion rate in series [3] (after 34 days) and in series [3] (immediately after start of treatment) were 87.6% and 0, respectively. The excreted in series [2] is 50-80%.
As for `NC(=O)C[C@H](N)C(=O)O` [L-asparagine], the “reabsorbed in the renal tubules” value in series [2] is recorded as “about 99%”.
With `N[C@@H](CO)C(=O)O` [L-serine], the “reabsorbed in the renal tubules” value in series [2] is recorded as “about 99%”.
